Source: patent publication US10112926B2 (priority 2014, dated 2018)
Where a name gives a salt, the structure may show the parent alone.

Tests used:
Vps34 = Vps34 (Homo sapiens (Human), UniProt Q8NEB9); conditions: read-out: Assay C VPS34 IC50
mTOR = mTOR (Homo sapiens (Human), UniProt P42345); conditions: read-out: Assay G mTOR IC50
PI 4-kinase beta = PI 4-kinase beta (Homo sapiens (Human), UniProt Q9UBF8); conditions: read-out: Assay D PI4Kβ IC50
Chain of PI 4-kinase beta (Q9UBF8 whole entry): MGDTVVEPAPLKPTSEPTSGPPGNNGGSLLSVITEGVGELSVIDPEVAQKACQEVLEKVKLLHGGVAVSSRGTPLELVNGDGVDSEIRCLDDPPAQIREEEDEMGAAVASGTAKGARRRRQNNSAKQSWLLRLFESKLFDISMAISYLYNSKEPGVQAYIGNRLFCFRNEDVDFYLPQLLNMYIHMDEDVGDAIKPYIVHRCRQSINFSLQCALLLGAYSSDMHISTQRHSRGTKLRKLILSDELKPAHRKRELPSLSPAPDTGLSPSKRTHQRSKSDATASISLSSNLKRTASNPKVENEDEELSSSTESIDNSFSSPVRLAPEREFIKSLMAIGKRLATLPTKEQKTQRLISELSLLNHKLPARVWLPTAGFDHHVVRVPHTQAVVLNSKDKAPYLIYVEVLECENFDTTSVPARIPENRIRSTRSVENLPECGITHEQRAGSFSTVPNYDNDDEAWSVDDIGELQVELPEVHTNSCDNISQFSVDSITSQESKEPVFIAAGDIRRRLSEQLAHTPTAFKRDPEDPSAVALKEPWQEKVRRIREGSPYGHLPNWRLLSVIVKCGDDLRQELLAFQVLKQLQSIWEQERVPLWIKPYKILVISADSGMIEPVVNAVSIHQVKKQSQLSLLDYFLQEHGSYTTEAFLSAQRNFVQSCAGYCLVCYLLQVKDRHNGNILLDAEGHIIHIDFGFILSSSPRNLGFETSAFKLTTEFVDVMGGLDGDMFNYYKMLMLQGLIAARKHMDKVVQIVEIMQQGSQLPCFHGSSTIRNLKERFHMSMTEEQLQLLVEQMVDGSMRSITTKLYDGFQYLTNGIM

Chain of Vps34 (Q8NEB9 whole entry): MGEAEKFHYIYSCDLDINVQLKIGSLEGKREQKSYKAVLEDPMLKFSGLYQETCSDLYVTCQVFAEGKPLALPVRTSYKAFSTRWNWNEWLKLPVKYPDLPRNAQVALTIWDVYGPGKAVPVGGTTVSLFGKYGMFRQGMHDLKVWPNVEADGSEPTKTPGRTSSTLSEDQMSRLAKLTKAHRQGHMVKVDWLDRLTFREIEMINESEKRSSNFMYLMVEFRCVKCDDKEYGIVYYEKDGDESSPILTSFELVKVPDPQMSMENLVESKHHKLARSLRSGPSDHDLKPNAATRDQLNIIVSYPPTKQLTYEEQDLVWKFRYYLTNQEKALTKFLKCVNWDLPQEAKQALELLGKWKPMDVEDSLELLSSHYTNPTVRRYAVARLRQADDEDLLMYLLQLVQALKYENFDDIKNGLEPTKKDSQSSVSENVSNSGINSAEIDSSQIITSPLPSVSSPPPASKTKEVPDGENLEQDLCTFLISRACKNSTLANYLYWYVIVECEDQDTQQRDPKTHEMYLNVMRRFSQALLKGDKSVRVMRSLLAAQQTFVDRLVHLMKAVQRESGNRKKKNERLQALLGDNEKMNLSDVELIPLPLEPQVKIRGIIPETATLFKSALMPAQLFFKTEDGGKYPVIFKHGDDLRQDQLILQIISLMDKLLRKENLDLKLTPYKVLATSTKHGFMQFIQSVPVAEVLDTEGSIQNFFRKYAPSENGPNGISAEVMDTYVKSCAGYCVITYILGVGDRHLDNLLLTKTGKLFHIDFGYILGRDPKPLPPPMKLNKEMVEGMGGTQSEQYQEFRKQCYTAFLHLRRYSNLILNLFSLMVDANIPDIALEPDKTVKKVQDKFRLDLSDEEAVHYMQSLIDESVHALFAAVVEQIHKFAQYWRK

Row | Compound | IC50 (Vps34) [µM] | IC50 (mTOR) [µM] | IC50 (PI 4-kinase beta) [µM]
1 | Cc1noc(-c2cc(-c3cc(S(=O)(=O)NC4CC(O)C4)ccc3C)cnc2N)n1 (mixture of isomers) [Example 5.5, Diastereomers of 3-(6-Amino-5-(3-methyl-1,2,4-oxadiazol-5-yl)pyridin-3-yl)-N-(3-hydroxycyclobutyl)-4-methylbenzene sulfonamide hydrochloride] | > 10 | > 10 | 
2 | Cc1cccc(NS(=O)(=O)c2ccc(C)c(-c3cnc(N)c(-c4cnn(CC(F)(F)F)c4)c3)c2)n1 [Example 1, 3-{6-Amino-5-[1-(2,2,2-trifluoro-ethyl)-1H-pyrazol-4-yl]-pyridin-3-yl}-4-methyl-N-(6-methyl-pyridin-2-yl)-benzenesulfonamide] | > 9.1 | 2.37 | 1.95
3 | Cc1ccc(S(=O)(=O)NCCC(C)(C)O)cc1-c1cnc(N)c(-c2cnn(C)c2)c1 [Example 2, 3-(6-Amino-5-(1-methyl-1H-pyrazol-4-yl)pyridin-3-yl)-N-(3-hydroxy-3-methylbutyl)-4-methylbenzenesulfonamide] | > 9.1 | > 9.1 | 5.4
4 | Cc1ncc(-c2cc(-c3cc(S(=O)(=O)NCCC(C)(C)O)ccc3C)cnc2N)s1 [Example 4, 3-(6-Amino-5-(2-methylthiazol-5-yl)pyridin-3-yl)-N-(3-hydroxy-3-methylbutyl)-4-methylbenzenesulfonamide] |  | 2.63 | 1.44
5 | Cc1ccc(S(=O)(=O)N[C@H]2CC[C@H](O)CC2)cc1-c1cnc(N)c(-c2cnn(CC(F)(F)F)c2)c1 [Example 4.2, trans 3-(6-Amino-5-(1-(2,2,2-trifluoroethyl)-1H-pyrazol-4-yl)pyridin-3-yl)-N-(4-hydroxycyclohexyl)-4-methyl-benzenesulfonamide] | > 10 | 1.3 | 0.65
6 | Cc1ccc(S(=O)(=O)NCC(C)(C)O)cc1-c1cnc(N)c(-c2cnn(C)n2)c1 [Example 4.4, 3-(6-amino-5-(2-methyl-2H-1,2,3-triazol-4-yl)pyridin-3-yl)-N-(2-hydroxy-2-methylpropyl)-4-methylbenzenesulfonamide hydrochloride] | > 10 | > 10 | 8.2
7 | Cc1ccc(S(=O)(=O)N[C@H]2CC[C@H](O)CC2)cc1-c1cnc(N)c(-c2cnn(C)n2)c1 [Example 4.5, trans 3-(6-Amino-5-(2-methyl-2H-1,2,3-triazol-4-yl)pyridin-3-yl)-N-(4-hydroxycyclohexyl)-4-methylbenzene sulfonamide hydrochloride] | > 10 | > 10 | 5.25
8 | CCc1cc(-c2cc(-c3cc(S(=O)(=O)NCC(C)(C)O)ccc3C)cnc2N)on1 [Example 4.6, 3-(6-Amino-5-(3-ethylisoxazol-5-yl)pyridin-3-yl)-N-(2-hydroxy-2-methylpropyl)-4-methyl-benzenesulfonamide hydrochloride] | > 10 | 1.4 | 2.7
9 | Cc1cc(-c2cc(-c3cc(S(=O)(=O)NC[C@H]4CCOC4)ccc3C)cnc2N)on1 [Example 4.7, (R)-3-(6-Amino-5-(3-methylisoxazol-5-yl)pyridin-3-yl)-4-methyl-N-((tetra hydrofuran-3-yl)methyl)benzene-sulfonamide hydrochloride] | > 10 | 7.7 | 1.7
10 | Cc1cc(-c2cc(-c3cc(S(=O)(=O)NCC(C)(C)O)ccc3C)cnc2N)sn1 [Example 4.8, 3-(6-Amino-5-(3-methylisothiazol-5-yl)pyridin-3-yl)-N-(2-hydroxy-2-methylpropyl)-4-methyl-benzenesulfonamide hydrochloride] | > 10 | > 10 | 3.15
11 | Cc1noc(-c2cc(-c3cc(S(=O)(=O)NCC4(C)COC4)ccc3C)cnc2N)n1 [Example 4.9, 3-(6-Amino-5-(3-methyl-1,2,4-oxadiazol-5-yl)pyridin-3-yl)-4-methyl-N-((3-methyloxetan-3-yl)methyl)benzene-sulfonamide] | > 10 | > 10 | > 10
12 | Cc1noc(-c2cc(-c3cc(S(=O)(=O)NCCC(C)(C)O)ccc3C)cnc2N)n1 [Example 5, 3-[6-Amino-5-(3-methyl-[1,2,4]oxadiazol-5-yl)-pyridin-3-yl]-N-(3-hydroxy-3-methyl-butyl)-4-methyl-benzenesulfonamide hydrochloride] | > 9.55 | 6.5 | 4.9
13 | Cc1ccc(S(=O)(=O)NCC(C)(C)O)cc1-c1cnc(N)c(-c2nc(C(C)C)no2)c1 [Example 5.1, 3-(6-Amino-5-(3-isopropyl-1,2,4-oxadiazol-5-yl)pyridin-3-yl)-N-(2-hydroxy-2-methylpropyl)-4-methylbenzenesulfonamide hydrochloride] | > 10 | 8.2 | 4.4
14 | Cc1cnc(-c2cc(-c3cc(S(=O)(=O)N[C@H]4CC[C@H](O)CC4)ccc3C)cnc2N)o1 [Example 5.2, trans 3-(6-Amino-5-(5-methyloxazol-2-yl)pyridin-3-yl)-N-(4-hydroxycyclohexyl)-4-methylbenzene sulfonamide hydrochloride] | > 10 | > 10 | 0.9
15 | CCc1noc(-c2cc(-c3cc(S(=O)(=O)NCC(C)(C)O)ccc3C)cnc2N)n1 [Example 5.3, 3-(6-Amino-5-(3-ethyl-1,2,4-oxadiazol-5-yl)pyridin-3-yl)-N-(2-hydroxy-2-methylpropyl)-4-methylbenzenesulfon-amide hydrochloride] | > 10 | > 10 | 
16 | Cc1noc(-c2cc(-c3cc(S(=O)(=O)N[C@H]4C[C@@H](O)C4)ccc3C)cnc2N)n1 [Example 5.5a, 3-(6-Amino-5-(3-methyl-1,2,4-oxadiazol-5-yl)pyridin-3-yl)-N-((1s,3s)-3-hydroxycyclobutyl)-4-methylbenzenesulfonamide] | > 10 | > 10 | 
17 | Cc1ncc(-c2cc(-c3cc(S(=O)(=O)NCCCO)ccc3C)cnc2N)s1 [Example 9, 3-[6-Amino-5-(2-methyl-thiazol-5-yl)-pyridin-3-yl]-N-(3-hydroxy-propyl)-4-methyl-benzenesulfonamide] | 0.89 | 5.9 | 1.92
18 | Cc1noc(-c2cc(-c3cc(S(=O)(=O)NOCC(C)(C)O)ccc3C)cnc2N)n1 [Example 11, 3-[6-Amino-5-(3-methyl-[1,2,4]oxadiazol-5-yl)-pyridin-3-yl]-N-(2-hydroxy-2-methyl-propoxy)-4-methyl-benzenesulfonamide, hydrochloride salt] | > 10 | > 10 | 5.1
19 | Cc1ncc(-c2cc(-c3cc(S(=O)(=O)NCC(C)(C)O)ccc3C)cnc2N)s1 [Example 15, 3-[6-Amino-5-(2-methyl-thiazol-5-yl)-pyridin-3-yl]-N-(2-hydroxy-2-methyl-propyl)-4-methyl-benzenesulfonamide] | 1.62 | 7.9 | 
20 | Cc1cc(-c2cc(-c3cc(S(=O)(=O)NCCC(C)(C)O)ccc3C)cnc2N)ccn1 [Example 16, 3-(2-Amino-2′-methyl-[3,4′]bipyridinyl-5-yl)-N-(3-hydroxy-3-methyl-butyl)-4-methyl-benzenesulfonamide] | > 9.1 | > 9.1 | 
21 | Cc1cc(-c2cc(-c3cc(S(=O)(=O)NCC4(C)COC4)ccc3C)cnc2N)on1 [Example 17, 3-[6-Amino-5-(3-methyl-isoxazol-5-yl)-pyridin-3-yl]-4-methyl-N-(3-methyl-oxetan-3-ylmethyl)-benzenesulfonamide hydrochloride] | 8.1 | 8.5 | 
22 | COC1(C)CN(S(=O)(=O)c2ccc(C)c(-c3cnc(N)c(-c4nc(C)no4)c3)c2)C1 [Example 37.2, 5-(5-((3-Methoxy-3-methylazetidin-1-yl)sulfonyl)-2-methylphenyl)-3-(3-methyl-1,2,4-oxadiazol-5-yl)pyridin-2-amine] |  | > 10 | > 10
23 | Cc1cc(-c2cc(-c3cc(S(=O)(=O)NCC4(CO)CCCCC4)ccc3C)cnc2N)on1 [Example 37.3, 3-(6-Amino-5-(3-methylisoxazol-5-yl)pyridin-3-yl)-N-((1-(hydroxymethyl)cyclohexyl)methyl)-4-methylbenzenesulfonamide] | > 10 | 3 | 
24 | Cc1noc(-c2cc(-c3cc(S(=O)(=O)NCC4CCCO4)ccc3C)cnc2N)n1 (stereo not shown) [Example 57, 3-(6-Amino-5-(3-methyl-1,2,4-oxadiazol-5-yl)pyridin-3-yl)-4-methyl-N-((tetrahydrofuran-2-yl)methyl)benzenesulfonamide] |  | 2.4 | > 10
25 | Cc1ccc(S(=O)(=O)NCC(C)(C)O)cc1-c1cnc(N)c(-c2cnoc2C)c1 [Example 62, 3-(6-Amino-5-(5-methylisoxazol-4-yl)pyridin-3-yl)-N-(2-hydroxy-2-methylpropyl)-4-methylbenzenesulfonamide] |  | > 10 | 6.6
26 | Cc1ccc(S(=O)(=O)NCC(C)(C)O)cc1-c1cnc(N)c(-c2nc(C(F)F)no2)c1 [Example 71, 3-(6-Amino-5-(3-(difluoromethyl)-1,2,4-oxadiazol-5-yl)pyridin-3-yl)-N-(2-hydroxy-2-methylpropyl)-4-methylbenzenesulfonamide hydrochloride] |  | > 10 | 10
27 | Cc1cc(-c2cc(-c3cc(S(=O)(=O)NCCO)ccc3C)cnc2N)on1 [Example 73, 3-(6-Amino-5-(3-methylisoxazol-5-yl)pyridin-3-yl)-N-(2-hydroxyethyl)-4-methylbenzenesulfonamide] | > 10 | > 10 | 
28 | Cc1ncc(-c2cc(-c3cc(S(=O)(=O)N[C@H]4CC[C@H](O)CC4)ccc3C)cnc2N)o1 [Example 98, 3-(6-amino-5-(2-methyloxazol-5-yl)pyridin-3-yl)-N-((1r,4r)-4-hydroxycyclohexyl)-4-methylbenzenesulfonamide hydrochloride] |  | 7.9 | 0.83
